Reference: patent publication US9522177B2, “Antimicrobial and immunostimulatory system comprising an oxidoreductase enzyme” (Institute of Technology Sligo, priority 2006, dated 2016)

Tests used:
[1] = test system: clinical isolates of Mastitis causing Staphylococcus aureus; assay: Inhibition assay (3 day repeats), mastitis isolates; assay type: cell-based; conditions: for sensitivity of clinical isolate number 15: Mastitis causing Staphylococcus aureus isolate number 15, FIG. 11b
Experimental: 22 isolates of Staphylococcus aureus from clinical mastitis obtained from Sligo regional Veterinary Laboratories are grown on nutrient agar or in nutrient broth for 24 hrs at 37° C.
Agar plates are inoculated by swabbing overnight culture onto the plate surface. Plates are allowed to stand at room temperature for 15 minutes before use. Wells 8.2 mm diameter are bored into the surface of the agar. One hundred and eighty μl of sample is placed into each well. The samples diffuse into the agar around the well and are assayed for an ability to produce a zone of inhibition. Plates are incubated for 24, 48 or 72 hrs and zones of inhibition are measured using an Autodata automatic zone reader. The diameter of zones, including the diameter of the well (8.2 mm), is recorded.

[2] = test system: L929 cells; assay: ISO 10993-5 agar overlay cytotoxicity (neutral red); conditions: positive control, 24 hrs
Experimental: ISO 10993, agar overlay tests for cytotoxicity: in vitro method is also used, employing L929 cells (mouse fibroblasts ECACC 85011425). In brief; a confluent monolayer of cells is incubated, this is then covered with a layer fresh medium (EMEM, 2 mM L-Glutamine, 5% FBS, 2% Penicillin-Streptomycin) containing 1.5 g/l of soft agar and allowed to solidify. One tenth of the surface is covered with test materials (previously described) and incubated for 24 hrs. Post incubation the test material is carefully removed and a vital stain (neutral red) in fresh media added. After incubation this is removed, the cells washed and then the dye extracted from the cells and quantified spectrophotometrically for cell viability.
Percent toxicity was calculated according to the formula: % Toxicity=1−(OD average of test material wells/average OD of corresponding control wells (sodium azide added))×100. Included in the assay are a 50% concentration of A^3IS, a range of concentrations of commercial silver containing gel and commercial zinc containing gel product, compared to sodium azide (positive control). […] For the agar overlay toxicity assay the amount of test materials used was similar to that used for the initial direct contact assays of 100 mg per well however the contact time was extended to 24 hrs.

Compound | sensitivity of clinical isolate number 15 [1] | further results
CN[C@H](CC(C)C)C(=O)N[C@H]1C(=O)N[C@@H](CC(N)=O)C(=O)N[C@H]2C(=O)N[C@H]3C(=O)N[C@H](C(=O)N[C@H](C(=O)O)c4cc(O)cc(O)c4-c4cc3ccc4O)[C@H](O)c3ccc(c(Cl)c3)Oc3cc2cc(c3O[C@@H]2O[C@H](CO)[C@@H](O)[C@H](O)[C@H]2O[C@H]2C[C@](C)(N)[C@H](O)[C@H](C)O2)Oc2ccc(cc2Cl)[C@H]1O [Vancomycin] | resistant | –
O=C(N[C@H](CO)[C@H](O)c1ccc([N+](=O)[O-])cc1)C(Cl)Cl [Chloramphenicol] | only mild sensitivity | –
[N-]=[N+]=[N-] [sodium azide] | – | % Toxicity [2]: 100%
Nisin [2% Nisin] | – | resistant colonies in zone of inhibition assays ([1]; FIG. 11e): resistant colony within the zone of inhibition
[H]/N=C(/N)N[C@H]1[C@H](O)[C@@H](O)[C@H](O[C@@H]2O[C@@H](C)[C@](O)(C=O)[C@H]2O[C@@H]2O[C@@H](CO)[C@H](O)[C@@H](O)[C@@H]2NC)[C@@H](N/C(N)=N\[H])[C@@H]1O [Streptomycin] | resistant | –
